Numbers after ± are expanded uncertainties.
How the values were obtained:
[1] = Crystal; DTA
[2] = Molar enthalpy of transition or fusion; settings: Crystal; DSC

CC(C)(C)C(O)(CCc1ccc(Cl)cc1)Cn1cncn1 (configuration not stated) [tebuconazole]
Normal melting temperature [1]: 100.32 ± 1.1 °C | Molar enthalpy of transition or fusion [2]: 6.92 ± 0.237 kcal/mol
